Structures are written as SMILES.

The test system of one test is untransduced WP4 cells. Put plainly: Ganciclovir killing of untransduced WP4 cells, methylene blue staining. Format: cell-based, murine. To be noted: 24-well plate, ganciclovir 0.01-100 uM, stained at 5 to 7 days. On the procedure: This example employs a clone (WP4) (Asher et al., J. Inmunol, Vol. 146, pg. 3227 (1991)) of a murine tumor cell line MCA205 (Wexler et al., J. Natl. Canc. Inst., Vol. 63, pg. 1393 (1979)) for assessing the utility of the HSV-TK gene in a “suicide” system.
Transduced “selected” cells are then plated in 24-well tissue culture plate at 1-2.5×10^4 cells per well. After 24 hrs. of culture, ganciclovir is added in concentrations ranging from 0.01-100 uM, the cells are monitored for growth and all wells are stained in methylene blue when the control wells (no ganciclovir added) are confluent (at 5 to 7 days). Complete killing of transduced selected cells is observed at concentrations from 0.1 to 1.0 uM of ganciclovir, while untransduced cells are killed at concentrations of 100 uM or greater.

Test [1] concerns untransduced WP4 tumor cells. Kind of test: Subcutaneous tumors from untransduced WP4 cells in mice, ganciclovir treatment. To be noted: in 40-45 days, with or without ganciclovir administration (125-150 mg/kg i.p. twice daily for 5 days). The class given is in vivo, C57BL/6 or BNX mice. On the procedure: (§1) WP4 tumor cells form tumors in C57BL/6 or BNX mice when injected subcutaneously. The number of cells required for tumor formation will vary depending of the strain of mouse used. C57BL/6 mice require 5×10^6-1×10^7 cells for tumor formation in 10-14 days. BNX mice require 1-5×10^4 cells for tumor formation in 10-14 days. Tumor cells are suspended in PBS and injected subcutaneously into the hind flank in a 0.5 ml volume. Five to ten days after tumor inoculation, ganciclovir is administered intraperitoneally twice daily for 5 days. A 2-5 mg/ml solution of ganciclovir prepared in serum-free medium (RPMI 1640, DMEM, or other) is used to achieve a dose of 125-150 mg/kg. Animals are monitored and tumor measurements made twice weekly.
(§2) At the time of ganciclovir administration, tumors are palpable, but unmeasurable. Tumors arising from untransduced WP4 cells reach a size of 2.0-2.5 cm^3 in 40-45 days with or without ganciclovir administration. Tumor cells containing the HSV-TK gene initially form palpable tumors then regress completely and become undetectable within 10-20 days after the start of ganciclovir treatment. Complete, long term tumor ablation is observed in 60-80% of mice having received selected cells plus ganciclovir therapy.

For test [2], the system named is WP4 tumor cells containing the HSV-TK gene. Kind of test: Subcutaneous tumors from WP4 cells containing the HSV-TK gene in mice, ganciclovir treatment. Format: in vivo, C57BL/6 or BNX mice. On the procedure:
as §1, §2

With `Nc1nc(O)c2ncn(COC(CO)CO)c2n1` [ganciclovir], in the test on untransduced WP4 cells, the “Concentration at which untransduced cells are killed” value is ≥ 100 µM. For the same compound, the “Tumor size reached by tumors arising from untransduced WP4 cells” value in test [1] is reported as 2.0-2.5 cm^3. The “Time after start of ganciclovir treatment by which tumors regress completely and become undetectable” value in test [2] (125-150 mg/kg intraperitoneally twice daily for 5 days, started 5-10 days after tumor inoculation) was 10 to 20 days. Further, the “Mice with complete, long term tumor ablation” value in test [2] (mice having received selected cells plus ganciclovir therapy, 125-150 mg/kg i.p. twice daily for 5 days) is recorded as 60-80%.
